According to PMC6271202, “1,2-Substituted 4-(1H)-Quinolones: Synthesis, Antimalarial and Antitrypanosomal Activities in Vitro” (Molecules, 2014):
Read-outs that look alike come from different tables or passages of the source.

Tests used:
P. falciparum NF54 = assay: Antimalarial assay in vitro (3H-hypoxanthine microculture radioisotope technique); type: cell-based, Plasmodium falciparum; settings: for IC50: Plasmodium falciparum, read-out: IC50 (µM) NF54; for SI L-6/NF54: selectivity index, quotient of L-6 cytotoxicity IC50 and NF54 IC50
Description: (§1) The drug sensitive strain of P. falciparum (NF54) was obtained from Schipol Airport, The Netherlands. […] L-6 cells were derived from rat skeletal myoblasts.
Antimalarial activity in vitro was determined by means of the microculture radioisotope technique which makes use of ^3H-hypoxanthine as an indicator of parasite viability. In this assay the drug sensitive NF54 strain was employed. Parasite cultures supplemented with HEPES (5.94 g/L), NaHCO3 (2.1 g/L), neomycin (100 U/mL), Albumax® (5 g/L) and washed human red cells A^+ at 2.5% haematocrit (0.3% parasitaemia) were incubated in RPMI 1640 medium without hypoxanthine and placed in the 96-well plates. Solutions of 4-(1H)-quinolone derivatives and the positive control chloroquine were dissolved in DMSO at 10 mg/mL and added to the first well followed by serial dilution to afford test concentrations ranging from 100 to 0.002 mg/L. After 48 h incubation at 37 °C, 4% CO2, 3% O2, 93% N2, ^3H-hypoxyanthine was added (0.5 µC/well) and then the plates were incubated further for 24 h under the same condition. The plates were freeze/thawed rapidly, harvested on glass fibre filters and dried. Radioactive hypoxanthine uptake was measured by scintillation counter. IC50 values were calculated from sigmoidal inhibition curves by linear regression using Microsoft Excel. Assays were carried out two times in triplicate.

[1] = test system: T. b. rhodesiense STIB 900 strain; assay: Antitrypanosomal assay in vitro (Alamar Blue); type: cell-based, Trypanosoma brucei rhodesiense; settings: for IC50: Trypanosoma brucei, read-out: IC50 (µM) STIB900; for SI L-6/STIB900: selectivity index, quotient of cytotoxicity and antitrypanosomal IC50 values
Description: as §1
In vitro antitrypanosomal assay was carried out against the bloodstream form of T. b. rhodesiense STIB 900 strain using the Alamar Blue assay. The STIB 900 strain was suspended in fresh medium containing 1% MEM powder medium, MEM non-essential amino acids (100x) supplemented with 25 mM HEPES, additional glucose (1 g/L), 0.2 mM 2-mercaptoethanol, 1.0 mM sodium pyruvate and 15% heat inactivated horse serum. 50 µL (4 × 10^3 trypanosomes/mL) of this suspension was seeded in each well of the 96-well microtiter plate which contained test compounds and the positive control melarsoprol which were dissolved in DMSO and serially diluted to concentrations ranging from […]. The plates were incubated at 37 °C under 5% CO2 atmosphere for 70 h. Alamar Blue solution (10 µL) was added and incubation was continued for further 2–4 h. Plates were read with a Spectramax Gemini XS (Molecular Devices Cooperation, Sunnyvale, CA, USA) at EX/EM (536/588 nm). The IC50 values were calculated by linear regression from the sigmoidal dose inhibition curves using SoftmaxPro software. Tests were carried out two times in triplicate.

[2] = test system: rat skeletal muscle cell (L-6); assay: Cytotoxicity assay (Alamar Blue); type: cell-based; settings: Myoblast, read-out: IC50 (µM) L-6
Description: as §1
96-well plates were seeded with 100 µL of RPMI 1640 medium supplemented with 1% L-glutamine and 10% fetal bovine serum, and rat skeletal muscle cell (L-6) (4 × 10^3/mL). The 4-(1H)-quinolone derivatives and the positive control podophyllotoxin were dissolved in DMSO and with a serial dilution ranging from […] were added into the wells in triplicate. The plates were incubated for 70 h and assessed microscopically for cell growth. Alamar Blue solution (10 µL) was then added to each well and incubation continued for 2 h before reading with a Spectramax Gemini XS at EX/EM 536/588. The IC50 values were calculated by linear regression from the sigmoidal dose inhibition curves using SoftmaxPro software. Tests were carried out two times in triplicate.

[3] = chloroquine sensitive strain P. falciparum NF54, 72 h total incubation
[4] = bloodstream form T. b. rhodesiense STIB 900, 70 h incubation
[5] = L-6 rat skeletal myoblasts, 70 h incubation

Row | Compound | IC50 (P. falciparum NF54; [3]) [µM] | SI L-6/NF54 (P. falciparum NF54) | IC50 [1, 4] [µM] | IC50 [2, 5] [µM] | SI L-6/STIB900 [1] | IC50 (P. falciparum NF54; NF54, 72 h) [µM] | IC50 ([2]; Rattus norvegicus, 70 h) [µM] | loss in potency compared to 29 (P. falciparum NF54; antimalarial potency, P. falciparum NF54, hydrogenation of the alkenyl chain of 29) [fold] | IC50 ([1]; 70 h) [µM]
1 | Cn1c(/C=C/CCCCCCCCCBr)cc(=O)c2ccccc21 [Compound 19] | 0.69 | 52.64 | 1.07 | 36.3 |  |  |  |  | 
2 | Cn1c(-c2ccc(CCCCCCBr)cc2)cc(=O)c2ccccc21 [Compound 5a, 1-Methyl-2-[4′-(6′′-bromohexyl)phenyl]-4(1H)-quinolone] | 0.09 |  | 1.64 | 6.63 | 4.04 |  |  |  | 
3 | CC1=C(/C=C/c2cc(=O)c3ccccc3n2CCBr)C(C)(C)CCC1 [Compound 21, 1-(2-Bromoethyl)-2-[(1′E)-2′-(2′′,6′′,6′′-trimethyl-1′′-cyclohexen-1′′-yl)ethenyl]-4-(1H)-quinol-one] | 1.99 | 16.65 | 8.85 | 33.2 | 3.76 |  |  |  | 
4 | C=CCn1c(/C=C/CCCCCCCCCCCC)cc(=O)c2ccccc21 [Compound 18e] | 0.31 | 45.78 | 8.18 | 14 | 1.71 |  |  |  | 
5 | CCN(CC)CCCC(C)Nc1ccnc2cc(Cl)ccc12 (stereo not drawn) [Chloroquine, reference compound] |  |  |  |  |  | 0.0063 |  |  | 
6 | CCCCCCCCCCC#CCCc1cc(=O)c2ccccc2n1CC [Compound 36b] | 0.45 | 29.82 | 16.6 | 13.6 | 0.82 |  |  |  | 
7 | CCCCCC/C=C\CCc1cc(=O)c2ccccc2n1C [Compound 28] | 15.3 | 3.22 | 11 | 49.5 | 4.48 |  |  |  | 
8 | CCCCCCCCCC=CCCCCc1cc(=O)c2ccccc2n1C [Compound 29] | 0.39 | 33.84 | 10.8 | 13.2 |  |  |  |  | 
9 | Cn1c(-c2ccc(CCCCCCCCCCN3CCCCC3)cc2)cc(=O)c2ccccc21 [Compound 5b, 1-Methyl-2-[4′-(10′′-piperidinyldecyl)phenyl]-4-(1H)-quinolone] | 0.82 | 11.73 | 3.41 | 9.63 | 2.83 |  |  |  | 
10 | COc1cc([C@@H]2c3cc4c(cc3[C@H](O)[C@H]3COC(=O)[C@H]23)OCO4)cc(OC)c1OC [Podophyllotoxin, reference compound] |  |  |  |  |  |  | 0.017 |  | 
11 | CCCOc1ccc(/C=C/c2cc(=O)c3cc(Cl)ccc3n2C)cc1 [Compound 10b, 6-Chloro-1-methyl-2-[(1′E)-(4′′-propoxyphenyl)ethenyl]-4-(1H)-quinolone] | 0.47 | 342.89 | 21.9 | 161 | 7.36 |  |  |  | 
12 | CCCCCCCCCCCC/C=C/c1cc(=O)c2ccccc2n1CCCC [Compound 18g] | 2.29 | 5.79 | 18.7 | 13.3 | 0.70 |  |  |  | 
13 | CCCCCOc1ccc(/C=C/c2cc(=O)c3ccccc3n2CCBr)cc1 [Compound 11] | 1.56 | 27.11 | 3.82 | 42.4 | 11.10 |  |  |  | 
14 | CCCOc1ccc(/C=C/c2cc(=O)c3ccccc3n2CCBr)cc1 [Compound 10a, 1-(2-Bromoethyl)-2-[(1′E)-(4′′-propoxyphenyl)ethenyl]-4-(1H)-quinolone] | 1.58 | 16.45 | 1.25 | 25.8 |  |  |  |  | 
15 | CCCCCCCCCCC#CCCc1cc(=O)c2ccccc2n1C [Compound 36a] | 3.11 | 4.29 | 33.5 | 13.3 | 0.39 |  |  |  | 
16 | C#CCn1c(/C=C/CCCCCCCCCCCC)cc(=O)c2ccccc21 [Compound 18d] | 4.64 | 5.32 | 24.5 | 24.7 | 1.01 |  |  |  | 
17 | Cn1c(CCCCC=C2CCCCCC2)cc(=O)c2ccccc21 [Compound 31] | 10.1 | 4.52 | 14.4 | 45.8 | 3.19 |  |  |  | 
18 | CN1CCN(CCCCCCCCC/C=C/c2cc(=O)c3ccccc3n2C)CC1 [Compound 20, 1-Methyl-2-[(1′E)-11′(N-methylpiperazinyl)undecenyl]-4-(1H)-quinolone] | 1.35 | 24.14 | 4.94 | 32.5 | 6.59 |  |  |  | 
19 | CCCCCCCCCCCC/C=C/c1cc(=O)c2ccccc2n1CCC [Compound 18f] | 1.19 | 10.99 | 19.1 | 13 | 0.68 |  |  |  | 
20 | CCCCCCCCC/C=C/c1cc(=O)c2ccccc2n1C [Compound 18a] | 12.4 | 3.61 | 52.2 | 44.7 | 0.86 |  |  |  | 
21 | CCCCCCCCCC/C=C/c1cc(=O)c2ccccc2n1CCBr [Compound 18b] | 2.3 | 16.69 | 8.28 | 38.4 | 4.63 |  |  |  | 
22 | CCCCCCCCCCCCC#Cc1cc(=O)c2ccccc2n1C [Compound 35] | 0.84 | 18.78 | 10.5 | 15.8 | 1.50 |  |  |  | 
23 | CCCCCCCCCCCCCCCc1cc(=O)c2ccccc2n1C [Compound 30] | 6.4 | 15.91 | 42.4 | 101 | 2.39 |  |  | 16 | 
24 | Nc1nc(N)nc(Nc2ccc([As]3SCC(CO)S3)cc2)n1 (stereo not drawn) [Melarsoprol, reference compound] |  |  |  |  |  |  |  |  | 0.0075
